From BindingDB's records for doi:10.1021/jm00051a006 (University of Alberta, 1995)
pEC50: −log10 of the molar value.

Assay: Effective concentration in vitro against HIV-1-infected CEM cells relative to uninfected untreated controls

Structure (SMILES)	pEC50
CO[C@@H]1N(C2CC(N=[N+]=[N-])C(CO)O2)C(=O)NC(=O)[C@@]1(C)Br (stereo partly specified)	6.55
CO[C@@H]1N(C2CC(N=[N+]=[N-])C(CO)O2)C(=O)NC(=O)[C@@]1(C)I (stereo partly specified)	8.29
CO[C@H]1N([C@H]2C[C@H](N=[N+]=[N-])[C@@H](CO)O2)C(=O)NC(=O)C1(C)Cl (stereo partly specified)	5.24
CCO[C@H]1N(C2CC(N=[N+]=[N-])C(CO)O2)C(=O)NC(=O)[C@]1(C)Br (stereo partly specified)	8.17
CCO[C@@H]1N(C2CC(N=[N+]=[N-])C(CO)O2)C(=O)NC(=O)[C@@]1(C)Br (stereo partly specified)	7.63
CC(C)O[C@H]1N(C2CC(N=[N+]=[N-])C(CO)O2)C(=O)NC(=O)[C@]1(C)Br (stereo partly specified)	5.24

More lines, in order of rising pEC50, values ahead:

pEC50	Structure (SMILES)
3.70	CC1(Br)C(=O)NC(=O)N([C@H]2C[C@H](N=[N+]=[N-])[C@@H](CO)O2)C1N=[N+]=[N-] (stereo partly specified)
5.83	CC1(Cl)C(=O)NC(=O)N([C@H]2C[C@H](N=[N+]=[N-])[C@@H](CO)O2)C1N=[N+]=[N-] (stereo partly specified)
6.06	CCCCCCCCO[C@H]1N(C2CC(N=[N+]=[N-])C(CO)O2)C(=O)NC(=O)[C@]1(C)Br (stereo partly specified)
8.49	CO[C@H]1N(C2CC(N=[N+]=[N-])C(CO)O2)C(=O)NC(=O)[C@]1(C)Br (stereo partly specified)
8.50	CO[C@H]1N(C2CC(N=[N+]=[N-])C(CO)O2)C(=O)NC(=O)[C@]1(C)I (stereo partly specified)
